Tested on: Transport facilitation protein genes
Experiment: DNA chip mRNA expression in yeast, transport facilitation protein genes (Table 5)
Format: cell-based, Saccharomyces cerevisiae S288C
Summary of the method: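 Untreated cultures served as reference for log-phase S288C yeast given a growth-inhibiting, non-lethal toxicant dose for 2 h at 25° C. in YPD. Gene expression was measured on a whole-genome DNA chip from Cy3/Cy5-labeled cDNA.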

CCCCCCCCCCCCOS(=O)(=O)[O-].[Na+] [(18), sodium lauryl sulfate]
The level of expressed mRNA in the presence of chemical substance/The level of expressed mRNA in the absence of chemical substance (yeast gene YGR224W): 1.3 | The level of expressed mRNA in the presence of chemical substance/The level of expressed mRNA in the absence of chemical substance (yeast gene YGR260W): 0.9 | The level of expressed mRNA in the presence of chemical substance/The level of expressed mRNA in the absence of chemical substance (yeast gene YGR281W): 3.1 | The level of expressed mRNA in the presence of chemical substance/The level of expressed mRNA in the absence of chemical substance (yeast gene YHL035C): 1.2 | The level of expressed mRNA in the presence of chemical substance/The level of expressed mRNA in the absence of chemical substance (yeast gene YHL040C): 1.0 | The level of expressed mRNA in the presence of chemical substance/The level of expressed mRNA in the absence of chemical substance (yeast gene YHL047C): 1.2 | The level of expressed mRNA in the presence of chemical substance/The level of expressed mRNA in the absence of chemical substance (yeast gene YHR026W): 1.1 | The level of expressed mRNA in the presence of chemical substance/The level of expressed mRNA in the absence of chemical substance (yeast gene YHR092C): 1.3 | The level of expressed mRNA in the presence of chemical substance/The level of expressed mRNA in the absence of chemical substance (yeast gene YHR094C): 1.4 | The level of expressed mRNA in the presence of chemical substance/The level of expressed mRNA in the absence of chemical substance (yeast gene YHR175W): 1.2 | The level of expressed mRNA in the presence of chemical substance/The level of expressed mRNA in the absence of chemical substance (yeast gene YIL006W): 0.9 | The level of expressed mRNA in the presence of chemical substance/The level of expressed mRNA in the absence of chemical substance (yeast gene YIL022W): 0.7 | The level of expressed mRNA in the presence of chemical substance/The level of expressed mRNA in the absence of chemical substance (yeast gene YIL056W): 1.2 | The level of expressed mRNA in the presence of chemical substance/The level of expressed mRNA in the absence of chemical substance (yeast gene YIL088C): 1.4 | The level of expressed mRNA in the presence of chemical substance/The level of expressed mRNA in the absence of chemical substance (yeast gene YJL034W): 1.0 | The level of expressed mRNA in the presence of chemical substance/The level of expressed mRNA in the absence of chemical substance (yeast gene YJL212C): 0.5 | The level of expressed mRNA in the presence of chemical substance/The level of expressed mRNA in the absence of chemical substance (yeast gene YJL219W): 1.2 | The level of expressed mRNA in the presence of chemical substance/The level of expressed mRNA in the absence of chemical substance (yeast gene YJR077C): 0.8 | The level of expressed mRNA in the presence of chemical substance/The level of expressed mRNA in the absence of chemical substance (yeast gene YJR106W): 1.3 | The level of expressed mRNA in the presence of chemical substance/The level of expressed mRNA in the absence of chemical substance (yeast gene YJR121W): 1.4 | The level of expressed mRNA in the presence of chemical substance/The level of expressed mRNA in the absence of chemical substance (yeast gene YKL016C): 1.7 | The level of expressed mRNA in the presence of chemical substance/The level of expressed mRNA in the absence of chemical substance (yeast gene YKL146W): 0.9 | The level of expressed mRNA in the presence of chemical substance/The level of expressed mRNA in the absence of chemical substance (yeast gene YKR039W): 1.1 | The level of expressed mRNA in the presence of chemical substance/The level of expressed mRNA in the absence of chemical substance (yeast gene YKR067W): 1.0 | The level of expressed mRNA in the presence of chemical substance/The level of expressed mRNA in the absence of chemical substance (yeast gene YLL028W): 1.2 | The level of expressed mRNA in the presence of chemical substance/The level of expressed mRNA in the absence of chemical substance (yeast gene YLR081W): 0.9 | The level of expressed mRNA in the presence of chemical substance/The level of expressed mRNA in the absence of chemical substance (yeast gene YLR295C): 1.5 | The level of expressed mRNA in the presence of chemical substance/The level of expressed mRNA in the absence of chemical substance (yeast gene YLR348C): 1.0 | The level of expressed mRNA in the presence of chemical substance/The level of expressed mRNA in the absence of chemical substance (yeast gene YLR378C): 0.7 | The level of expressed mRNA in the presence of chemical substance/The level of expressed mRNA in the absence of chemical substance (yeast gene YMR011W): 1.6 | The level of expressed mRNA in the presence of chemical substance/The level of expressed mRNA in the absence of chemical substance (yeast gene YMR162C): 1.1 | The level of expressed mRNA in the presence of chemical substance/The level of expressed mRNA in the absence of chemical substance (yeast gene YMR203W): 0.7 | The level of expressed mRNA in the presence of chemical substance/The level of expressed mRNA in the absence of chemical substance (yeast gene YNL055C): 1.7 | The level of expressed mRNA in the presence of chemical substance/The level of expressed mRNA in the absence of chemical substance (yeast gene YNL259C): 2.4 | The level of expressed mRNA in the presence of chemical substance/The level of expressed mRNA in the absence of chemical substance (yeast gene YNR072W): 1.0 | The level of expressed mRNA in the presence of chemical substance/The level of expressed mRNA in the absence of chemical substance (yeast gene YOL119C): 1.0 | The level of expressed mRNA in the presence of chemical substance/The level of expressed mRNA in the absence of chemical substance (yeast gene YOL156W): 0.9 | The level of expressed mRNA in the presence of chemical substance/The level of expressed mRNA in the absence of chemical substance (yeast gene YOL163W): 0.8 | The level of expressed mRNA in the presence of chemical substance/The level of expressed mRNA in the absence of chemical substance (yeast gene YOR035C): 2.1 | The level of expressed mRNA in the presence of chemical substance/The level of expressed mRNA in the absence of chemical substance (yeast gene YOR130C): 1.1 | The level of expressed mRNA in the presence of chemical substance/The level of expressed mRNA in the absence of chemical substance (yeast gene YOR153W): 3.1 | The level of expressed mRNA in the presence of chemical substance/The level of expressed mRNA in the absence of chemical substance (yeast gene YOR273C): 3.1 | The level of expressed mRNA in the presence of chemical substance/The level of expressed mRNA in the absence of chemical substance (yeast gene YOR316C): 1.0 | The level of expressed mRNA in the presence of chemical substance/The level of expressed mRNA in the absence of chemical substance (yeast gene YOR332W): 1.7 | The level of expressed mRNA in the presence of chemical substance/The level of expressed mRNA in the absence of chemical substance (yeast gene YOR348C): 0.9 | The level of expressed mRNA in the presence of chemical substance/The level of expressed mRNA in the absence of chemical substance (yeast gene YPL036W): 0.5 | The level of expressed mRNA in the presence of chemical substance/The level of expressed mRNA in the absence of chemical substance (yeast gene YPL134C): 1.3 | The level of expressed mRNA in the presence of chemical substance/The level of expressed mRNA in the absence of chemical substance (yeast gene YPL147W): 3.6 | The level of expressed mRNA in the presence of chemical substance/The level of expressed mRNA in the absence of chemical substance (yeast gene YPL271W): 1.3 | The level of expressed mRNA in the presence of chemical substance/The level of expressed mRNA in the absence of chemical substance (yeast gene YPR192W): 0.9 | The level of expressed mRNA in the presence of chemical substance/The level of expressed mRNA in the absence of chemical substance (yeast gene YPR194C): 0.9

From patent publication US8192962B2, “Processes for detecting toxic substances” (Daikin Industries, Ltd., priority 2001, dated 2012)
